Data as given in patent publication US5068064A, “N-substituted lauramides, their preparation and compositions in which they are present” (Sanofi, priority 1989, dated 1991).
In brackets after ≈: the same amount, converted by molar mass.

Tests used:
[1] = tested on: Candida albicans CIP 1180; experiment: Percentage of fungicidal active principle, second method (5 min contact), C. albicans; format: cell-based
From the text: (§1) In the two methods, a bacterial inoculum is brought into contact with different dilutions of the product for a determined period of time.
(§2) When the contact period has ended, an aliquot of the mixture of bacterial suspension and product is taken and brought into contact with an agent for neutralizing the bacterial activity of the mixture, either in a solid medium or in a liquid medium. The bactericidal activity of the product, expressed either as a concentration or as a percentage of active principle, corresponds to an absence of bacterial growth.
(§3) The second method makes it possible to define a percentage of bactericidal or fungicidal active principle by means of a simplified and automated adaptation of Afnor standards NF T 72-150 and NF T 72-170. In this method, the bactericidal activity of the product is determined with and without interfering substances. It is based on assessing the destruction of 99.99% of the initial bacteria by the product in 5 minutes. The interfering substances are of the protein type and are chosen for the actual conditions of application of this type of product. The contact time between product and bacterial suspension is 5 minutes, the neutralization step is 10 minutes and subculture is effected in a liquid medium.
(§4) The experiment is performed in microtiter plates; it comprises two steps. The first step, called the preliminary test, checks that the product is indeed neutralized. In the test proper, the different dilutions of the product are brought into contact with 2 to 6.10^3 cells per milliliter of the bacterial suspension in the second row of the microtiter plate. After a contact time of 5 minutes, an aliquot is transferred to the third row containing the neutralizer adapted to the product and to the strain. After a contact time of 10 minutes, aliquots are transferred to the last 5 rows containing Tryptic Soy Broth® (TSB) from Difco.
(§5) The interfering substances tested are a mixture of albumin and yeast extract. In the first row of the microplate, these proteins are brought into contact for 5 minutes with the different dilutions of the product. After this step, the same principle as above is applied: 5 minutes of contact with the germ, 10 minutes of contact with the neutralizer, transfer to TSB.
The antifungal activity of the products according to the invention was also determined with and without interfering substances using the method described above. The same strain was used as for the first technique, namely Candida albicans CIP 1180. It is harvested in an identical manner to that described in the first method.

[2] = tested on: Enterococcus faecium CIP 5855; experiment: Percentage of bactericidal active principle, second method (5 min contact), E. faecium; format: cell-based; details: destruction of 99.99%
From the text: as §1, §2, §3
(§6) The chosen bacterial strains are:
(§7) The strains are maintained on Tryptic Soy Agar® (TSA) marketed by Difco.
(§8) The strains are harvested in a manner identical to the first method; these suspensions contain between 1.10^8 and 3.10^8 cells per milliliter. Appropriate dilutions make it possible to have a suspension containing 2 to 6.10^3 cells per milliliter.
as §4, §5

[3] = tested on: Escherichia coli CIP 54127; experiment: Minimum bactericidal concentration, first method (30 min contact), E. coli; format: cell-based; details: CIP54127, 0.5 h, contact time 30 minutes
From the text: as §1, §2
(§9) The first method makes it possible to define a minimum bactericidal concentration (MBC) or minimum fungicidal concentration (MFC), expressed in μg/ml. The contact time between product and bacterial suspension is 30 minutes. The neutralizer is included in agar.
(§10) The CIP bacterial strains chosen for the study, which are available from the Institut Pasteur, are:
(§11) 3. Escherichia coli CIP 54127
as §7
(§12) After 24 hours of culture at 37° C., the microbial growth is harvested with the aid of glass beads and 10 ml of diluent containing 1 g of tryptone and 8.5 g of sodium chloride in 1000 ml of distilled water. The suspension formed is shaken and the percentage transmission of light at 620 nm is measured in a spectrophotometer:
(§13) The bacterial inoculum corresponds to a 1:20 dilution of this bacterial suspension.
(§14) Plates containing cupules receive different dilutions of the test product. These dilutions of the test product are brought into contact with the different bacterial suspensions using a multiple site inoculator. After a contact time of 30 minutes, aliquots are transferred with this inoculator to the surface of an agar medium (TSA) placed in Petri dishes containing an activity neutralizer, namely 20 g of lubrol W, 2.5 g of Tween 80, 2.5 g of sodium thiosulfate and 1% of egg yolk in 1000 ml of TSA (Difco). A control for the efficacy of the neutralizer is prepared for each test product by depositing an aliquot of the dilution of the test product on the surface of the culture medium. After drying, the corresponding inoculum is deposited in the same place. An inoculum control is prepared on agar medium with and without neutralizer. The results are read off after 48 hours of incubation at 37° C.
(§15) They indicate the minimum bactericidal concentrations (MBC) for strains 1, 2, 3 and 4 and the minimum fungicidal concentrations (MFC) for strain 5.

[4] = tested on: Staphylococcus aureus CIP 53154; experiment: Minimum bactericidal concentration, first method (30 min contact), S. aureus; format: cell-based; details: CIP53154, 0.5 h, contact time 30 minutes
From the text: as §1, §2, §9, §10
(§16) 1. Staphylococcus aureus
as §7, §12, §13, §14, §15

[5] = tested on: Escherichia coli CIP 54127; experiment: Percentage of bactericidal active principle, second method (5 min contact), E. coli; format: cell-based; details: destruction of 99.99%
From the text: as §1, §2, §3, §6, §11, §7, §8, §4, §5

[6] = tested on: Pseudomonas aeruginosa CIP A22; experiment: Minimum bactericidal concentration, first method (30 min contact), P. aeruginosa; format: cell-based; details: CIPA22, 0.5 h, contact time 30 minutes
From the text: as §1, §2, §9, §10
4. Psuedomonas aeruginosa
as §7, §12, §13, §14, §15

[7] = tested on: Mycobacterium smegmatis CIP 7326; experiment: Percentage of bactericidal active principle, second method (5 min contact), M. smegmatis; format: cell-based; details: with proteins as interfering substances, destruction of 99.99%
From the text: as §1, §2, §3, §6
5. Mycobacterium smegmatis
as §7, §8, §4, §5

[8] = tested on: Enterococcus faecium CIP 5855; experiment: Minimum bactericidal concentration, first method (30 min contact), E. faecium; format: cell-based; details: CIP5855, 0.5 h, contact time 30 minutes
From the text: as §1, §2, §9, §10, §7, §12, §13, §14, §15

[9] = tested on: S. aureus, E. faecium, E. coli, P. aeruginosa, C. albicans, M. smegmatis; experiment: Second method, bactericidal and fungicidal activity over all strains (Table III); format: cell-based; details: contact time 5 minutes
From the text: as §1, §2
as §3, with “The contact time between product and bacterial suspension is 5 minutes, the neutralization step is 10 minutes and subculture is effected in a liquid medium.” left out
The antifungal activity of the products according to the invention was also determined with and without interfering substances using the method described above. […]

[10] = tested on: Pseudomonas aeruginosa CIP A22; experiment: Percentage of bactericidal active principle, second method (5 min contact), P. aeruginosa; format: cell-based; details: destruction of 99.99%
From the text: as §1, §2, §3, §6
4. Pseudomonas aeruginosa
as §7, §8, §4, §5

[11] = tested on: Staphylococcus aureus CIP 53154; experiment: Percentage of bactericidal active principle, second method (5 min contact), S. aureus; format: cell-based; details: with proteins as interfering substances, destruction of 99.99%
From the text: as §1, §2, §3, §6, §16, §7, §8, §4, §5

[12] = tested on: Candida albicans CIP 1180; experiment: Minimum fungicidal concentration, first method (30 min contact), C. albicans; format: cell-based; details: CIP1180, 0.5 h, contact time 30 minutes
From the text: as §1, §2, §9, §14
The antifungal activity of the products according to the invention was also determined using the method described above. A representative strain of yeast was selected for the study: Candida albicans CIP 1180 (strain 5).
This is maintained on Sabouraud's Dextrose Agar marketed by Difco. The technique is identical to that described for studying the antibacterial activity. After 48 hours of culture at 37° C., the microbial growth is harvested with the aid of glass beads and 5 ml of diluent containing 1 g of tryptone and 8.5 g of sodium chloride in 1000 ml of distilled water; a further 5 ml of the diluent are then added. This suspension gives a percentage transmission of light at 620 nm of 2 to 3% in a spectrophotometer.
The inoculum corresponds to a 1:10 dilution of this microbial suspension. A 1:100 dilution of this suspension, observed between slide and cover glass through a No. 40 microscope objective, must show 10 cells per field, which corresponds to 1,000,000 yeasts per ml.
as §15

[13] = Product solubility; details: water
[14] = Simple: without interfering substances
[15] = with proteins as interfering substances

CCCCCCCCCCCC(=O)NCCN(C)C [D1, reference compound]
Fungicidal activity, results in percentage of active principle, C. albicans [1, 14]: 0.1 percentage of active principle
Fungicidal activity, results in percentage of active principle, C. albicans [1, 15]: 0.5 percentage of active principle
Bactericidal activity, results in percentage of active principle, E. faecium [2, 14]: 0.01 percentage of active principle
Bactericidal activity, results in percentage of active principle, E. faecium [2, 15]: 0.1 percentage of active principle
MBC [3]: 50 µg/mL (≈ 185 µM)
MBC [4]: 50 µg/mL (≈ 185 µM)
Bactericidal activity, results in percentage of active principle, E. coli [5, 14]: 0.05 percentage of active principle
Bactericidal activity, results in percentage of active principle, E. coli [5, 15]: 0.1 percentage of active principle
MBC [6]: 50 µg/mL (≈ 185 µM)
Bactericidal activity, results in percentage of active principle, M. smegmatis [7]: > 0.5 percentage of active principle
MBC [8]: 50 µg/mL (≈ 185 µM)
Ranking of activities among the products [9]: the activities are the lowest
Bactericidal activity, results in percentage of active principle, P. aeruginosa [10, 14]: 0.05 percentage of active principle
Bactericidal activity, results in percentage of active principle, P. aeruginosa [10, 15]: 0.5 percentage of active principle
Bactericidal activity, results in percentage of active principle, S. aureus [11]: 0.5 percentage of active principle
MFC [12]: 200 µg/mL (≈ 739 µM)
solubility [13]: 18 mg/mL (≈ 66600 µM)
